According to publication PMC9207808 (ACS Chemical Biology, 2022):
Residues, ends and D or L forms follow the SMILES beside them.

What was measured:
DocSTm [1] = test: Surface plasmon resonance binding to immobilised Doc; set-up: species or system S. Typhimurium; settings: for koff × 10^-6 / kon × 10^6: 1:1 kinetic fit, mean ± SD of at least 3 replicates; for kon × 10^6: single-cycle kinetics (multicycle for PhdSTm1-73); for Half-life of the complex: t1/2 = ln2 / koff
Procedure: Experiments were performed in a Biacore S200 (Cytiva) with a Series S sensor chip NTA (Cytiva). The data was analyzed using the Biacore Evaluation Software (Cytiva) and curves were plotted using GraphPad Prism 5 (GraphPad Software, U.S.A.). All experiments were performed at 22 °C with a running buffer containing 10 mM HEPES, 500 mM NaCl, 50 μM EDTA, and 0.005% (v/v) TWEEN 20 at pH 8.0. The surface was conditioned following the standard manufacturer’s guidelines and protein immobilization was performed with a 30–60 s pulse (flow rate of 5 μL/min) of Doc (150 nM) in running buffer. […] Surface regeneration was performed with a 1 min pulse of 0.5 M imidazole followed by a 1 min pulse of 0.35 M of EDTA at pH 8.0.
Binding to Doc was performed using a multicycle kinetics (MCK) setup for peptides 7, 10, and 14, while the remaining samples were tested using a single-cycle kinetics (SCK) setup. The surface was fully regenerated in between each analyte in both cases. In the MCK experiments, increasing concentrations of each analyte were injected with an 80 s pulse (30 μL/min) and dissociation times varied depending on the time required to fully dissociate the complex. The double-referenced sensorgrams (raw data subtracted from a blank injection and reference surface responses) were analyzed using a kinetic and/or a steady-state 1:1 binding model. In the SCK experiments, typically six concentrations of each analyte were sequentially injected with 80 s pulses (30 μL/min), and dissociation times varied depending on the time required to dissociate at least 5% of the complex. The double-referenced sensorgrams were fitted using a kinetic 1:1 binding model.
At least three independent replicates were measured for each analyte (ESI section 5). When a steady-state fit was applied, the reported Kd and its uncertainty correspond, respectively, to the average and standard deviations of the Kd obtained in each measurement. When a kinetic fit was applied, the reported rate constants (kon and koff) and their uncertainties correspond, respectively, to the average and standard deviations of the rate constants obtained in each measurement. In this case, reported Kd were calculated using the equation below, and the standard deviation of the rate constants was propagated. [drawing 1]

DocSTm [2] = test: Differential scanning fluorimetry (thermal stabilisation of Doc); assay type: binding, S. Typhimurium; settings: for melting temperature shift ΔTm: DSF, DocSTm 5 μM, analyte 50 μM, Tm with analyte minus Tm of free DocSTm (42.9 ± 0.9 °C), SYPRO Orange, 20 mM K2HPO4, 50 mM (NH4)2SO4, pH 8.0, triplicate; for Average Tm / Tm: DocSTm 5 µM + 50 µM binder; for Average Tm: average of 3 replicates
Procedure: Experiments were performed in a Mx3005P qPCR System (Agilent) collecting fluorescence data with a temperature ramp of 25 to 95 °C. Samples were prepared in a buffer containing 20 mM K2HPO4 and 50 mM (NH4)2SO4 at pH 8.0. The SYPRO Orange dye (Sigma-Aldrich, 5000× stock in DMSO) was used to monitor protein denaturation and was diluted to a final concentration of 3×. For binding experiments, the final concentration of Doc was 5 μM. Each condition was performed in triplicate (ESI section 4) and the melting curves were plotted using GraphPad Prism 5 (GraphPad Software, U.S.A.). The melting temperatures were obtained by fitting the sigmoidal section of the curves to a Boltzmann sigmoid function.

[3] = SPR, kinetic fit, KD calculated from mean koff and kon, SD propagated, 22 °C, pH 8.0

Compound | Kd (DocSTm [1]; SPR kinetic fit, replicate 1) [pM] | Kd (DocSTm [1]; SPR kinetic fit, replicate 2) [pM] | Kd (DocSTm [1]; SPR kinetic fit, replicate 3) [pM] | koff × 10^-6 (DocSTm [1]; SPR, 22 °C, pH 8.0) | kon × 10^6 (DocSTm [1]; SPR, 22 °C, pH 8.0) | Kd (DocSTm [1]; [3]) [pM] | Half-life of the complex (DocSTm [1]) [h] | melting temperature shift ΔTm (DocSTm [2]) [°C] | Average Tm (DocSTm [2]) [°C] | Tm (DocSTm [2]; replicate 1) [°C] | Tm (DocSTm [2]; replicate 2) [°C] | Tm (DocSTm [2]; replicate 3) [°C]
CC[C@H](C)[C@H](NC(=O)[C@H](C)NC(=O)[C@H](C)NC(=O)[C@H](Cc1ccccc1)NC(=O)[C@H](CCC(=O)O)NC(=O)[C@H](CC(=O)O)NC(=O)[C@H](CC(=O)O)NC(=O)[C@H](CCSC)NC(=O)[C@H](Cc1c[nH]c2ccccc12)NC(C)=O)C(=O)N[C@@H](CCSC)C(=O)N[C@@H](C)C(=O)N[C@H](C(=O)N[C@@H](Cc1c[nH]cn1)C(=O)NCC(=O)N[C@@H](CC(N)=O)C(=O)N[C@@H](CCC(=O)O)C(=O)N[C@@H](CC(C)C)C(=O)N[C@@H](CCCNC(=N)N)C(=O)N[C@@H](C)C(=O)N[C@@H](CC(C)C)C(=O)N[C@@H](C)C(=O)N[C@@H](CC(=O)O)C(=O)N[C@@H](CCCCN)C(=O)O)C(C)C [peptide 16] (Ac-WMDDEFAAIMAVHGNELRALADK-OH; C-terminus assumed) | 68.7 | 70.3 | 51.8 | 136 ± 41 ×10^-6 s-1 | 2.101 ± 0.333 ×10^6 M-1 s-1 | 65 ± 22 | 1.4 ± 0.4 | 30.7 ± 0.9 | 73.6 ± 0.2 | 73.5 | 73.5 | 73.9
CC[C@H](C)[C@H](NC(=O)[C@H](C)NC(=O)[C@H](C)NC(=O)[C@H](Cc1ccccc1)NC(=O)[C@H](CCC(=O)O)NC(=O)[C@H](CC(=O)O)NC(=O)[C@H](CC(=O)O)NC(=O)[C@H](CCSC)NC(=O)[C@H](Cc1c[nH]c2ccccc12)NC(C)=O)C(=O)N[C@@H](CCSC)C(=O)N[C@@H](C)C(=O)N[C@H](C(=O)N[C@@H](Cc1c[nH]cn1)C(=O)NCC(=O)N[C@@H](CC(N)=O)C(=O)N[C@@H](CCC(=O)O)C(=O)N[C@@H](CC(C)C)C(=O)N[C@@H](CCCNC(=N)N)C(=O)N[C@@H](CCC(=O)O)C(=O)N[C@@H](CC(C)C)C(=O)N[C@@H](C)C(=O)N[C@@H](C)C(=O)N[C@@H](CCCCN)C(=O)O)C(C)C [peptide 18] (Ac-WMDDEFAAIMAVHGNELRELAAK-OH; C-terminus assumed) | 53.2 | 18.9 | 38.5 | 84 ± 33 ×10^-6 s-1 | 2.508 ± 0.964 ×10^6 M-1 s-1 | 33 ± 18 | 2.3 ± 0.9 | 28.0 ± 0.9 | 70.9 ± 0.3 | 71.1 | 71.0 | 70.6
